# Assay results published in patent US11034698B2, “Pyrazolo[ 1,5a]pyrimidine derivatives as IRAK4 modulators” (priority 2017, dated 2021).
# Counter-ions that a name gives are not always drawn.
# Molecular target: human IRAK4 (Homo sapiens (Human), UniProt Q9NWZ3)
# Experiment: IRAK4 kinase inhibition, Transcreener fluorescence polarization (ADP)
# Type: biochemical
# Settings: not given
# Method: Compounds were assayed for inhibition of human IRAK4 and IRAK1 catalytic activity using recombinant enzyme produced from insect cells. Full-length IRAK4 protein, carrying an N-terminal His6-Tag, was obtained from Life Technologies (Carlsbad, Calif., USA). The IRAK1 construct was produced internally and was comprised of IRAK1 residues Arg194 to Ser712, preceded by an NH2-terminal His6 tag and the coding sequence for glutathione-S-transferase.
# Kinase activities were assayed using the Transcreener-Fluorecescence polarization platform (BelBrook Labs, Madison, Wis., USA) that measures amounts of the reaction product, ADP.
# Sequence of human IRAK4 (Q9NWZ3 whole entry): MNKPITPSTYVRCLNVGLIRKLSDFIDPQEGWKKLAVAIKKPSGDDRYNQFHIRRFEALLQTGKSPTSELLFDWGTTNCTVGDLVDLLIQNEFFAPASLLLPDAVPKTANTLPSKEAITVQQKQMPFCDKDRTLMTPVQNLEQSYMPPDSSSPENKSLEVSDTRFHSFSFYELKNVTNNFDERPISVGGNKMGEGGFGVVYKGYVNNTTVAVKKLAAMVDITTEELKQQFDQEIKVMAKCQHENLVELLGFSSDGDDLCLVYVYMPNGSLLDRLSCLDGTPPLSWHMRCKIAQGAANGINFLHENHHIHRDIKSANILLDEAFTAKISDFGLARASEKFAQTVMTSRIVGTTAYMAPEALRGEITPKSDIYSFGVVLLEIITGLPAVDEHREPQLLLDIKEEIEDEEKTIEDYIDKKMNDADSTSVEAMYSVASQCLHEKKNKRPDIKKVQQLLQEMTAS
row,Compound,Ki
1,"CC1(C)Cc2cc(NC(=O)c3cnn4cccnc34)c(N3CCN(C[C@H]4CCCC(=O)N4)CC3)cc2O1 (single isomer, unassigned) [Example 7]",10 nM
2,"CC[C@H]1CC(=O)NN1C1CCN(c2cc3c(cc2NC(=O)c2cnn4cccnc24)CC(C)(C)O3)CC1 (single isomer, unassigned) [Example 18]",6.7 nM
3,"CC1(C)Cc2cc(NC(=O)c3cnn4cccnc34)c(O[C@@H]3CN(CC(N)=O)C[C@H]3N)cc2O1 (single isomer, unassigned) [Example 20]",17 nM
4,"CCN1C[C@@H](COc2cc3c(cc2NC(=O)c2cnn4cccnc24)CC(C)(C)O3)CC1=O (single isomer, unassigned) [Example 23]",250 nM
5,"CN1C[C@@H](COc2cc3c(cc2NC(=O)c2cnn4cccnc24)CC(C)(C)O3)CC1=O (single isomer, unassigned) [Example 25]",90 nM
6,"CC1(C)Cc2cc(NC(=O)c3cnn4cccnc34)c(OC[C@H]3Cc4ccccc4[C@H]3N)cc2O1 (single isomer, unassigned) [Example 27]",670 nM
7,"CC1(C)Cc2cc(NC(=O)c3cnn4cccnc34)c(OC[C@H]3Cc4ccccc4[C@@H]3N)cc2O1 (single isomer, unassigned) [Example 28]",260 nM
8,"CC1(C)Cc2cc(NC(=O)c3cnn4cccnc34)c(OC[C@@H]3Cc4ccccc4[C@@H]3N)cc2O1 (single isomer, unassigned) [Example 29]",780 nM
9,"CC1(C)Cc2cc(NC(=O)c3cnn4cccnc34)c(OC[C@@H]3C[C@@H]4NCCO[C@H]4C3)cc2O1 (single isomer, unassigned) [Example 31]",60 nM
10,"CC1(C)Cc2cc(NC(=O)c3cnn4cccnc34)c(OC[C@@H]3C[C@H]4NCCO[C@@H]4C3)cc2O1 (single isomer, unassigned) [Example 32]",720 nM
11,"CC1(C)Cc2cc(NC(=O)c3cnn4cccnc34)c(OC[C@H]3C[C@H]4NCCO[C@@H]4C3)cc2O1 (single isomer, unassigned) [Example 33]",230 nM
12,"COc1cc2c(cc1NC(=O)c1cnn3ccc(N4C[C@H](N)CC(F)(F)C4)nc13)CC(C)(C)O2 (single isomer, unassigned) [Example 37]",7.7 nM
13,"C[C@]1(CCC#N)COc2cc(N3CCOCC3)c(NC(=O)c3cnn4cccnc34)cc2C1 (single isomer, unassigned) [Example 59]",30 nM
14,"CC(C)(O)[C@H](F)CN1Cc2cc(NC(=O)c3cnn4cccnc34)c(O[C@@H]3CCNC3)cc2C1=O (single isomer, unassigned) [Example 63]",5.3 nM
15,"CC(C)(O)[C@H](F)CN1Cc2cc(NC(=O)c3cnn4cccnc34)c(O[C@@H]3CC[C@H](O)C3)cc2C1=O (single isomer, unassigned) [Example 67]",1.1 nM
16,"CC(C)Oc1cc2c(cc1NC(=O)c1cnn3cccnc13)CN([C@@H]1CCOC1)C2=O (single isomer, unassigned) [Example 69]",1.8 nM
17,"CC(C)(O)[C@H](F)CN1Cc2cc(NC(=O)c3cnn4cccnc34)c(OC[C@H]3CNC(=O)C3)cc2C1=O (single isomer, unassigned) [Example 72]",1 nM
18,"CC(C)(O)[C@H](F)CN1Cc2cc(NC(=O)c3cnn4cccnc34)c(O[C@H]3CCOC3)cc2C1=O (single isomer, unassigned) [Example 84]",0.49 nM
19,"C[C@@H]1C[C@@H]2CN(c3cc4c(cc3NC(=O)c3cnn5cccnc35)CN(C[C@@H](F)C(C)(C)O)C4=O)CCN2C1 (single isomer, unassigned) [Example 111]",9.9 nM
20,"CN(C)c1cc2c(cc1NC(=O)c1cnn3cccnc13)CC(C)(C)[C@@H]2O (single isomer, unassigned) [Example 157]",310 nM

# Same assay, conditions: recombinant full-length His6-IRAK4 1.25 nM; 125 uM ATP; 125 uM peptide; 90 min; ATP Km 642 uM; read-out: IRAK4 Ki
row,Compound,Ki
1,"CC1(C)Cc2cc(NC(=O)c3cnn4cccnc34)c(N3CCN(CCN)CC3)cc2O1 [Example 1, N-[6-[4-(2-aminoethyl)piperazin-1-yl]-2,2-dimethyl-3H-benzofuran-5-yl]pyrazolo[1,5-a]pyrimidine-3-carboxamide]",7.4 nM
2,"CC(=O)NCCN1CCN(c2cc3c(cc2NC(=O)c2cnn4cccnc24)CC(C)(C)O3)CC1 [Example 3, N-(6-(4-(2-Acetamidoethyl)piperazin-1-yl)-2,2-dimethyl-2,3-dihydrobenzofuran-5-yl)pyrazolo[1,5-a]pyrimidine-3-carboxamide]",3.7 nM
3,"CN(C)CCN1CCN(c2cc3c(cc2NC(=O)c2cnn4cccnc24)CC(C)(C)O3)CC1 [Example 4, N-(6-(4-(2-(Dimethylamino)ethyl)piperazin-1-yl)-2,2-dimethyl-2,3-dihydrobenzofuran-5-yl)pyrazolo[1,5-a]pyrimidine-3-carboxamide]",41 nM
4,"Cc1ccc(=O)[nH]c1CN1CCN(c2cc3c(cc2NC(=O)c2cnn4cccnc24)CC(C)(C)O3)CC1 [Example 5, N-(2,2-Dimethyl-6-(4-((3-methyl-6-oxo-1,6-dihydropyridin-2-yl)methyl)piperazin-1-yl)-2,3-dihydrobenzofuran-5-yl)pyrazolo[1,5-a]pyrimidine-3-carboxamide]",18 nM
5,"CC1(C)Cc2cc(NC(=O)c3cnn4cccnc34)c(N3CCN(C[C@@H]4CCCC(=O)N4)CC3)cc2O1 [Example 6, (S)-N-(2,2-Dimethyl-6-(4-((6-oxopiperidin-2-yl)methyl)piperazin-1-yl)-2,3-dihydrobenzofuran-5-yl)pyrazolo[1,5-a]pyrimidine-3-carboxamide]",5.3 nM
6,"Cc1nc[nH]c1CN1CCN(c2cc3c(cc2NC(=O)c2cnn4cccnc24)CC(C)(C)O3)CC1 [Example 8, N-(2,2-Dimethyl-6-(4-((4-methyl-1H-imidazol-5-yl)methyl)piperazin-1-yl)-2,3-dihvdrobenzofuran-5-yl)pyrazolo[1,5-a]pyrimidine-3-carboxamide]",3.8 nM
7,"CCc1nc[nH]c1CN1CCN(c2cc3c(cc2NC(=O)c2cnn4cccnc24)CC(C)(C)O3)CC1 [Example 9, N-[6-[4-[(4-Ethyl-1H-imidazol-5-yl)methyl]piperazin-1-yl]-2,2-dimethyl-3H-benzofuran-5-yl]pyrazolo[1,5-a]pyrimidine-3-carboxamide]",3.9 nM
8,"CC1(C)Cc2cc(NC(=O)c3cnn4cccnc34)c(N3CCN(Cc4[nH]cnc4Cl)CC3)cc2O1 [Example 10, N-(6-(4-((4-Chloro-1H-imidazol-5-yl)methyl)piperazin-1-yl)-2,2-dimethyl-2,3-dihydrobenzofuran-5-yl)pyrazolo[1,5-a]pyrimidine-3-carboxamide]",2.3 nM
9,"Cc1ncsc1CN1CCN(c2cc3c(cc2NC(=O)c2cnn4cccnc24)CC(C)(C)O3)CC1 [Example 11, N-(2,2-Dimethyl-6-(4-((4-methylthiazol-5-yl)methyl)piperazin-1-yl)-2,3-dihydrobenzofuran-5-yl)pyrazolo[1,5-a]pyrimidine-3-carboxamide]",4.6 nM
10,"Cc1oncc1CN1CCN(c2cc3c(cc2NC(=O)c2cnn4cccnc24)CC(C)(C)O3)CC1 [Example 12, N-(2,2-Dimethyl-6-(4-((5-methylisoxazol-4-yl)methyl)piperazin-1-yl)-2,3-dihydrobenzofuran-5-yl)pyrazolo[1,5-a]pyrimidine-3-carboxamide]",5.2 nM
11,"CC1(C)Cc2cc(NC(=O)c3cnn4cccnc34)c(N3CCN(C4COC4)CC3)cc2O1 [Example 13, N-(2,2-Dimethyl-6-(4-(oxetan-3-yl)piperazin-1-yl)-2,3-dihydrobenzofuran-5-yl)pyrazolo[1,5-a]pyrimidine-3-carboxamide]",8.1 nM
12,"Cc1nocc1CN1CCN(c2cc3c(cc2NC(=O)c2cnn4cccnc24)CC(C)(C)O3)CC1 [Example 14, N-(2,2-Dimethyl-6-(4-((3-methylisoxazol-4-yl)methyl)piperazin-1-yl)-2,3-dihydrobenzofuran-5-yl)pyrazolo[1,5-a]pyrimidine-3-carboxamide hydrochloride]",5.2 nM
13,"CCc1oc(=O)[nH]c1CN1CCN(c2cc3c(cc2NC(=O)c2cnn4cccnc24)CC(C)(C)O3)CC1 [Example 15, N-(6-(4-((5-Ethyl-2-oxo-2,3-dihydrooxazol-4-yl)methyl)piperazin-1-yl)-2,2-dimethyl-2,3-dihydrobenzofuran-5-yl)pyrazolo[1,5-a]pyrimidine-3-carboxamide]",9.4 nM
14,"Cc1noc(C)c1CN1CCN(c2cc3c(cc2NC(=O)c2cnn4cccnc24)CC(C)(C)O3)CC1 [Example 16, N-(6-(4-((3,5-Dimethylisoxazol-4-yl)methyl)piperazin-1-yl)-2,2-dimethyl-2,3-dihydrobenzofuran-5-yl)pyrazolo[1,5-a]pyrimidine-3-carboxamide]",14 nM
15,"CC[C@@H]1CC(=O)NN1C1CCN(c2cc3c(cc2NC(=O)c2cnn4cccnc24)CC(C)(C)O3)CC1 [Example 17, (R)-N-(6-(4-(5-Ethyl-3-oxopyrazolidin-1-yl)piperidin-1-yl)-2,2-dimethyl-2,3-dihydrobenzofuran-5-yl)pyrazolo[1,5-a]pyrimidine-3-carboxamide]",8.4 nM
16,"CC1(C)Cc2cc(NC(=O)c3cnn4cccnc34)c(O[C@H]3CN(CC(N)=O)C[C@@H]3N)cc2O1 [Example 19, N-(6-(((3S,4S)-4-Amino-1-(2-amino-2-oxoethyl)pyrrolidin-3-yl)oxy)-2,2-dimethyl-2,3-dihydrobenzofuran-5-yl)pyrazolo[1,5-a]pyrimidine-3-carboxamide]",53 nM
17,"COc1cc2c(cc1NC(=O)c1cnn3ccc(Cl)nc13)CC(C)(C)O2 [Example 21, 5-Chloro-N-(6-methoxy-2,2-dimethyl-2,3-dihydrobenzofuran-5-yl)pyrazolo[1,5-a]pyrimidine-3-carboxamide]",110 nM
18,"CCN1C[C@H](COc2cc3c(cc2NC(=O)c2cnn4cccnc24)CC(C)(C)O3)CC1=O [Example 22, (R)-N-(6-((1-Ethyl-5-oxopyrrolidin-3-yl)methoxy)-2,2-dimethyl-2,3-dihydrobenzofuran-5-yl)pyrazolo[1,5-a]pyrimidine-3-carboxamide]",460 nM
